Laboratory results published in patent publication US20050032896A1, “Use of synthetic retinoic acid in form of 13-cis vitamin A for treatment of autism” (priority 2002, published 2005).

Experiments:
Type in all cases: in vivo, human
symptoms of autism = assay: Oral treatment of an autistic subject, observed symptoms of autism
Text: The patient in the present example is a child, weighs approximately 60 pounds, and is characterized by the symptoms of deficiencies in short term memory, inadequate independent problem solving skills for their age, deficient spontaneous verbalizations, utterances of diminished length, infrequent request to interact with family members and friends, insufficient capacity to master the complexity of play schemes for their age, and a tendency toward abnormal emotional responses (i.e. laughing when someone is seriously hurt in a movie, not offering assistance to family members when hurt, and not laughing along with siblings while watching cartoons, but instead tensing and becoming overly excited).
The subject weighing approximately 60 pounds was given a dosage of synthetic retinoic acid in the form of 13-cis vitamin A in amounts from about […] to about 40 mg per 60 lbs of body weight per day. […] Improvements in lessening the symptoms associated with the autism disorder were noted as early as 10 days into the treatment, with solid gains noted by the 17th day into the treatment.
(§1) As an example, the improvements in relief or elimination of symptoms of autistic disorder after about 17 days of administering synthetic retinoic acid in the form of 13-cis vitamin A at dosage levels of from about 20 mg every other day to about 40 mg per day, auditory evoked potential (AEP) responses were given before administering the mentioned dosage and after administration of the dosage regimen.

synaptic activity = assay: Auditory evoked potential (AEP) responses before and after the dosage regimen; conditions: after the dosage regimen versus before
Protocol: as §1

[1] = Blood analysis for retinoic acid content after oral vitamin A palmitate, second study 1999 to 2000; conditions: autistic subject; oral 20 mg every other day for two weeks, then 40 mg per day up to 5 months
Protocol: In a second study conducted in a period from 1999 to 2000, the autistic subject was orally given retinoic acid in the form of […] in an amount of 20 mg every other day for two weeks, and thereafter the dosage was increased to 40 mg per day for a period up to 5 months. […] Although there are numerous cis-trans isomers of vitamin A, there is no possibility for cis-trans isomerism about the cyclohexane double bond because the ring contains only 6 atoms. There are four carbon-carbon double bonds in the chain of atoms attached to the substituted cyclohexane ring, and each has the potential for cis-trans isomerism. Therefore, there are 2×2×2×2, or 16, possible cis-trans isomers for vitamin A. [drawing 1]

[2] = Blood analysis for retinoic acid content after oral vitamin A palmitate, first vitamin A study 1996; conditions: autistic subject; vitamin A palmitate day 1=0, day 2=25,000 IU, day 3 through day 7=50,000 IU
Protocol: In the first vitamin A study in 1996, a sample of the autistic subjects blood was analyzed for retinoic acid content on the belief that there was a deficiency of retinoic acid. At this time, the subject had been receiving up to about 50,000 IU dose of vitamin A palmitate, wherein day 1=0, day 2=25,000 IU and day 3 through day 7=50,000 IU. The RDA is 5,000 IU per day.

[3] = 20 mg every other day for two weeks, then 40 mg per day, oral
[4] = autistic subject, oral dosage regimen

Row | retinoic acid content in blood samples [1] | retinoic acid content in blood [2] | Structure (SMILES) | time into treatment at which improvements in symptoms were first noted (symptoms of autism; [3]) [days] | time into treatment at which solid gains were noted (symptoms of autism; [3]) [days] | language and cognitive functions (symptoms of autism; after the dosage regimen for between about 10 and 17 days) | capability to master the complexity of play schemes (symptoms of autism; [4]) | frequency of request to interact with family members and friends (symptoms of autism; [4]) | independent problem solving skills (symptoms of autism; [4]) | length of utterances (symptoms of autism; [4]) | short term memory (symptoms of autism; [4]) | spontaneous verbalizations (symptoms of autism; [4]) | tendencies towards more normalized emotional responses (symptoms of autism; [4]) | optimal dose for lessening the symptoms of autism (symptoms of autism; for two weeks, thereafter increased to 40 mg per day, person, approx. 60 pounds, oral) | synaptic activity recorded by audio evoked potentials (AEP) (synaptic activity)
1 | – | – | CC1=C(/C=C/C(C)=C/C=C/C(C)=C\C(=O)O)C(C)(C)CCC1 | 10 | ≤ 17 | noted improvement in language and cognitive functions | increase in the capability to master the complexity of play schemes | increase in the frequency of request to interact with family members and friends | improvement in independent problem solving skills | increase in the length of utterances | Improvement in short term memory | increase in spontaneous verbalizations | improvement in tendencies towards more normalized emotional responses | about 20 mg per 60 lbs of body weight every other day | increase in synaptic activity
2 | contained no retinoic acid | no retinoic acid could be detected | CCCCCCCCCCCCCCCC(=O)OC/C=C(C)/C=C/C=C(C)/C=C/C1=C(C)CCCC1(C)C [vitamin A palmitate] | – | – | – | – | – | – | – | – | – | – | – | –
